Test results as given in US8946265B2, “Process for the preparation of lenalidomide” (Generics [UK] Limited, priority 2009, dated 2015).
Like-named read-outs stand apart in the source and are kept apart here.

Experiments:
[1] = Thermodynamic stability and interconversion of polymorphs; type: physicochemical
[2] = Hygroscopicity of the crystalline form; type: physicochemical; settings: solid crystalline form

| SMILES | polymorphic conversion under heating ([1]; conditions of heating) | thermodynamic stability relative to other polymorphs [1] | polymorphic conversion in aqueous solvent systems ([1]; aqueous solvent systems) | thermodynamic stability relative to other polymorphs ([1]; listed as form A) | hygroscopicity [2] |
| --- | --- | --- | --- | --- | --- |
| Nc1cccc2c1CN(C1CCC(=O)NC1=O)C2=O (centres unmarked) [form B, 3-(4-amino-1-oxo-1,3-dihydro-isoindol-2-yl)-piperidine-2,6-dione] | convert to form A |  |  |  |  |
| Nc1cccc2c1CN(C1CCC(=O)NC1=O)C2=O (centres unmarked) [lenalidomide crystalline form A, 3-(4-amino-1-oxo-1,3-dihydro-isoindol-2-yl)-piperidine-2,6-dione] |  | most thermodynamically stable anhydrous polymorph | convert to form B | most thermodynamically stable form | non-hygroscopic |
